Measurements reported in PubChem BioAssay AID2060910 (Molecular Pharmacology Branch, DTP, NCI, 2025).
Several values for one entry are separate records, joined by “and”; a condition that tells them apart may be missing. Equal values may be shown once. Values belong to the compound of their own block, whether it stands above or below them.

Test system: 242566-281-R-J2-PDC complex spheroid viability
Assay: Anticancer human tumor 242566-281-R-J2-PDC patient-derived pancreatic carcinoma cell line growth inhibition [RAS]
Details: for viability, T/C: stronger effect = lower value
Summary of the method: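 Multi-cell-type spheroids: tumor cells plus HUVEC endothelial cells and mesenchymal stem cells. RAS-pathway inhibitors were combined with targeted agents, each dosed in half-log steps down from clinical Cmax, or from 10 microM when Cmax was unknown.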
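Further: spheroids exposed to compound for 7 days before readout.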
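Wherever viability, T/C is given: 100% = DMSO vehicle control wells.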

IC50 (curve of first compound, second compound 0.000949 µM): > 10 µM | IC50 (curve of first compound, second compound 0.003 µM): > 10 µM | IC50 (curve of first compound, second compound 0.00949 µM): > 10 µM | IC50 (curve of first compound, second compound 0.03 µM): < 0.0316 µM | IC50 (curve of first compound, second compound 0.0949 µM): < 0.0316 µM | IC50 (curve of first compound, second compound 0.3 µM): < 0.0316 µM
SMILES: C[C@@H](NC(=O)c1ncnc(N)c1Cl)c1ncc(C(=O)Nc2cc(C(F)(F)F)c(Cl)cn2)s1 + CCn1c(-c2cc(N3CCN(C)CC3)cnc2C(C)OC)c2c3cc(ccc31)-c1csc(n1)CC(NC(=O)C1CC1C)C(=O)N1CCCC(N1)C(=O)OCC(C)(C)C2
viability, T/C (second compound 0.000949 µM, first compound 0.0316 µM): 98.8% | viability, T/C (second compound 0.000949 µM, first compound 0.1 µM): 114% | viability, T/C (second compound 0.000949 µM, first compound 0.316 µM): 82.7% | viability, T/C (second compound 0.000949 µM, first compound 1 µM): 97.9% | viability, T/C (second compound 0.000949 µM, first compound 3.16 µM): 106% | viability, T/C (second compound 0.000949 µM, first compound 10 µM): 76.4% | viability, T/C (second compound 0.003 µM, first compound 0.0316 µM): 89.8% | viability, T/C (second compound 0.003 µM, first compound 0.1 µM): 73.5% | viability, T/C (second compound 0.003 µM, first compound 0.316 µM): 71.6% | viability, T/C (second compound 0.003 µM, first compound 1 µM): 79.2% | viability, T/C (second compound 0.003 µM, first compound 3.16 µM): 92.7% | viability, T/C (second compound 0.003 µM, first compound 10 µM): 62.3% | viability, T/C (second compound 0.00949 µM, first compound 0.0316 µM): 54% | viability, T/C (second compound 0.00949 µM, first compound 0.1 µM): 49.3% | viability, T/C (second compound 0.00949 µM, first compound 0.316 µM): 54.7% | viability, T/C (second compound 0.00949 µM, first compound 1 µM): 63.3% | viability, T/C (second compound 0.00949 µM, first compound 3.16 µM): 58.9% | viability, T/C (second compound 0.00949 µM, first compound 10 µM): 52.7% | viability, T/C (second compound 0.03 µM, first compound 0.0316 µM): 35.3% | viability, T/C (second compound 0.03 µM, first compound 0.1 µM): 35.2% | viability, T/C (second compound 0.03 µM, first compound 0.316 µM): 39.9% | viability, T/C (second compound 0.03 µM, first compound 1 µM): 35.4% | viability, T/C (second compound 0.03 µM, first compound 3.16 µM): 29.8% | viability, T/C (second compound 0.03 µM, first compound 10 µM): 40.1% | viability, T/C (second compound 0.0949 µM, first compound 0.0316 µM): 22.9% | viability, T/C (second compound 0.0949 µM, first compound 0.1 µM): 24.8% | viability, T/C (second compound 0.0949 µM, first compound 0.316 µM): 25.7% | viability, T/C (second compound 0.0949 µM, first compound 1 µM): 27.2% | viability, T/C (second compound 0.0949 µM, first compound 3.16 µM): 23.6% | viability, T/C (second compound 0.0949 µM, first compound 10 µM): 26.3% | viability, T/C (second compound 0.3 µM, first compound 0.0316 µM): 21.2% | viability, T/C (second compound 0.3 µM, first compound 0.1 µM): 23.5% | viability, T/C (second compound 0.3 µM, first compound 0.316 µM): 22.2% | viability, T/C (second compound 0.3 µM, first compound 1 µM): 19.9% | viability, T/C (second compound 0.3 µM, first compound 3.16 µM): 21.9% | viability, T/C (second compound 0.3 µM, first compound 10 µM): 22.6%

IC50 (curve of compound): > 10 µM
SMILES: Cc1nc(N2CCC3(CC2)COC(C)C3N)c(CO)nc1Sc1ccnc(N)c1Cl (stereo unspecified)
viability, T/C (compound 0.0316 µM): 119% and 98.2% and 102% (2×) | viability, T/C (compound 0.316 µM): 94.2% [middle of 4 runs] | viability, T/C (compound 1 µM): 85.4% [middle of 4 runs]
